The test system of series [1] is WT mice. Put plainly: blood glucose levels in fed WT mice (FIG. 2). The class given is in vivo, mouse. An excerpt:
Similar results are observed in experiments involving ob/ob mice.

In series [2] the test system is ob/ob mice. In words: insulin sensitivity in ob/ob mice (FIG. 6). The class given is in vivo, mouse.
In series [3] the test system is WT mice. In words: insulin sensitivity in WT mice (FIG. 5). The class given is in vivo, mouse.
The test system of series [4] is ob/ob mice. In words: blood glucose levels in leptin-deficient diabetic ob/ob mice (FIG. 3). Type of series: in vivo, mouse. The note with it: for blood glucose levels: over the course of the study, FIG. 3. From the text: In a related vein, the invention encompasses a method for gauging the therapeutic efficacy of the composition as described above. This method involves obtaining at least two blood samples from a subject at different times during treatment and measuring the level of blood glucose in each sample.

The nature of series [5]: analysis of mouse plasma after intravenous administration of nitro oleic acid. The class given is in vivo. As for the experimental part:
In contrast, the plasma levels for the β-oxidation products are highest at around 60 minutes.

For series [6], the system named is ob/ob mice. The note with it: mouse, in vivo.
Series [7] has as its system ob/ob mice. Put plainly: body weight of ob/ob mice (FIG. 4). The note with it: entire course of the study.
The test system of series [8] is WT mice. In words: body weight of WT mice (FIG. 4). The note with it: course of the study (25 days).
[9] abbreviates: following intravenous administration of nitro oleic acid.

Entries after “also recorded” stand apart in the source; their conditions may differ. Where two headings read alike, the source gives them in different places.

For the molecule “9- or 10-nitro octadecenoic acid [nitro oleic acid]”, the “effectiveness in maintaining blood glucose levels compared with Rosiglitazone” value in the series with WT mice [1] (WT mice) was “at least as effective as Rosiglitazone”. Also, the blood glucose level entry with WT mice [1] (fed WT mice) was “maintains a steady blood glucose level”. The insulin sensitivity entry in the series with ob/ob mice [2] is given as “improves insulin sensitivity”. In addition, the “blood glucose levels after administration of insulin” value with ob/ob mice [2] (FIG. 6) is “substantial decrease in blood glucose levels”. Besides, the “blood glucose levels after administration of insulin” value with WT mice [3] is reported as “initial drop in blood glucose levels followed by an elevation to normal levels”. The “blood glucose levels on day 21 versus beginning of the study” value in the series on ob/ob mice [4] (day 21, FIG. 3) was “significantly lower on day 21 than at the beginning of the study”. Further, in the series on ob/ob mice [4], the blood glucose levels entry is “lower blood glucose levels; also recorded: effective in reducing blood glucose levels”. In series [5] (setting [9]), the “shape of plasma level curve as a function of time” value was “biphasic” and the “time of peak plasma concentration” value was “around 5 minutes”. Further, the “physiological fate (metabolism in vivo)” value in series [5] (intravenous administration) was “converted in-vivo, to its saturated analog, or can undergo β-oxidative cleavage”. The “side-effects of weight gain and fluid retention” value in the series on ob/ob mice [6] was “without the side-effects of weight gain and fluid retention”.
As for `CN(CCOc1ccc(CC2SC(=O)NC2=O)cc1)c1ccccn1` (stereo not drawn) [Rosiglitazone], the body weight result is “steady increase in body weights” with ob/ob mice [7] and “do not change over the course of the study” in the series on WT mice [8].
As for `CCCCCCCC/C=C\CCCCCCCC(=O)O` [oleic acid, (Z)-octadec-9-enoic acid, reference compound], the blood glucose levels entry with ob/ob mice [4] is on record as “blood glucose levels increased over the course of the study”. The body weight result in the series on ob/ob mice [6] was “steady increase in body weights”.

For the origin of these results see patent US10869850B2, “Nitrated-fatty acids modulation of type II diabetes” (University of Pittsburgh—Of the Commonwealth System of …, priority 2007, dated 2020).
